The test system of assay [1] is HUVECs. The assay is described as follows: NO and ONOO^− release from HUVECs pretreated with agents, then exposed to oxLDL (Example 11, Objective 1). The format is cell-based, human. To be noted: pretreatment 30 min, agents at 10 μM, then oxLDL 11 mg/dL up to 3 hr; for NO / ONOO^−: calcium ionophore 1.0 μM. On the procedure: The omega-3 fatty acid, cis-5,8,11,14,17-eicosapentaenoic acid (EPA) and docosahexaenoic acid (DHA) were purchased from Sigma-Aldrich (Saint Louis, Mo.) and solubilized in redistilled ethanol to 11 mM under nitrogen atmosphere. EPA and DHA stock solutions were stored at −20° C. until use.
Human umbilical vein endothelial cells (HUVECs) were obtained from healthy, female donors and isolated into primary, proliferating cell cultures (Clonetics, San Diego, Calif.). […] The confluent cells (4 to 5×10^5 cells/35 mm dish) were plated with minimum essential medium containing 3 mM L-arginine and 0.1 mM BH4 [(6R)-5,6,7,8-tetrahydrobiopterin]. Before experimental use, the cells (from second or third passage) were rinsed twice with Tyrode-HEPES buffer with 1.8 mM CaCl2.
Venous blood was collected from healthy volunteers into vacutainer tubes containing sodium EDTA. […] The LDL subfraction was retained for additional experimentation. Plasma and lipoprotein fractions were maintained at 4° C. and protected from excessive exposure to light. Prior to oxidation experiments, EDTA was removed from the lipoprotein fraction using PD-10 desalting columns (GE Healthcare, Piscataway N.J.). After equilibration of the column with phosphate buffered saline (PBS), 2.5 mL of the lipoprotein fraction was loaded on the column and the flow-through discarded. The lipoprotein was then eluted with 3 mL of PBS. The LDL fractions were further diluted with PBS to obtain a 100 μg/mL apoB100 concentration.
LDL underwent oxidation following the addition of 10 μM CuSO4. To measure oxidation, 100 μL aliquots were removed and combined with 1.0 mL thiobarbituric acid (0.5%), 10 μL trichloroacetic acid (5%), 10 μL BHT (5 mg/mL in methanol), and 10 μL EDTA (5 mM). […] Sample TBARS concentrations were determined spectrophotometrically by measuring sample absorbances against a standard curve derived from the hydrolysis of 1,1,3,3-tetramethoxypropane.
Concurrent measurements of NO and ONOO^− were performed with tandem electrochemical nanosensors combined into one working unit with a total diameter of 200-400 nm. Their design is based on previously developed and chemically modified carbon-fiber technology. Each of the nanosensors was made by depositing a sensing material on the tip of a carbon fiber (length 4 to 5 μm, diameter 100-200 nm). The fibers were sealed with nonconductive epoxy and electrically connected to copper wires with conductive silver epoxy. Conductive films of polymeric Ni(II) tetrakis (3-methoxy-4-hydroxyphenyl) porphyrin and Mn(III) [2.2] paracyclophanyl-porphyrin were used for the NO and ONOO^− sensors, respectively.
The amperometric method (with a response time of 0.1 ms) provides a quantitative signal (current) that is directly proportional to changes (from basal levels) in NO or ONOO^− concentration. Amperometric measurements were performed with a Gamry III double-channel potentiostat. Basal NO or ONOO^− levels were measured by differential pulse voltammetry in separate experiments.
All measurements of NO and ONOO^− were performed on intact endothelial cells. The NO/ONOO^− nanosensor module was positioned 5±2 μm from the surface of each individual endothelial cell using a computer-controlled M3301 micromanipulator (x-y-z resolution of 0.2 μm) and microscope (both from World Precision Instruments, Berlin, Germany) fitted with a CD camera. […] Cells will then be treated with calcium ionophore (to maximally stimulate the release of nitrous molecules) and monitored continuously for changes in amperometric current.
Data are presented as mean+S.D. for (N) separate samples or treatment groups. Differences between groups were analyzed using the two-tailed, Student's t-test (for comparisons between only two groups) or ANOVA followed by Dunnett or Student-Newman-Keuls multiple comparisons post-hoc analysis (for comparisons between three or more groups). Alpha error was set to 0.05 in this study.
NO and ONOO^− release were measured following stimulation with calcium.

Assay [2] has as its system human sdLDL. Description: Copper-induced sdLDL oxidation, TBARS (Example 7). The class given is biochemical. The settings on record: for effect on sdLDL oxidation as compared to vehicle-treated controls: all at 10 μM, 1 hour (FIG. 16). Here is the method:
(§1) An experiment to study the antioxidant effect of EPA in LDL and small dense […] performed. […] Fenofibrate, gemfibrozil, and niacin were purchased from Sigma-Aldrich. […] Vitamin E was also incubated with sample aliquots as a positive control.

Assay [3] has as its system human LDL. The assay is described as follows: Copper-induced oxidation of unfractionated LDL, TBARS (Example 7). The class given is biochemical. To be noted: for effect on unfractionated LDL oxidation as compared to vehicle-treated controls: all agents at 10 μM, 1 hour (FIG. 25). On the procedure: as §1

These results are taken from patent US20190054054A1, “Methods reducing or preventing oxidation of high density lipoprotein (HDL)” (Amarin Pharmaceuticals Ireland Limited, priority 2017, published 2019).

Structures are written as SMILES.

As to `CC/C=C\C/C=C\C/C=C\C/C=C\C/C=C\C/C=C\CCC(=O)O` [DHA, docosahexaenoic acid], in assay [1], the NO is given as 378 ± 5 and the “ONOO^−” value is 229 ± 16.

As a reminder, the IC50 is the midpoint of a concentration-inhibition curve. Turning to `CC/C=C\C/C=C\C/C=C\C/C=C\C/C=C\CCCC(=O)O` [EPA, cis-5,8,11,14,17-eicosapentaenoic acid], the “inhibition of sdLDL oxidation as compared to vehicle” value in assay [2] (1.0 μM (each agent), 1 hr) is recorded as 19±8%. Also, the “effect on sdLDL oxidation as compared to vehicle or DHA” value in assay [2] (10.0 μM, after 4 hours) was “significantly inhibited sdLDL oxidation”. For the same compound, the IC50 in assay [2] (1 hr, 10 μM CuSO4, read-out: IC50, inhibition of sdLDL oxidation (calculated)) was roughly 2000 nM. Moreover, in assay [2] (each agent at 10.0 μM, 1 hour (FIG. 17)), the “inhibition of sdLDL oxidation as compared to vehicle” value was determined as 92±8%. In assay [2] (highest treatment concentration (10 μM), 1 hr), the “inhibition of TBARS formation” value was determined as 93±2%. Besides, the “effect on unfractionated LDL oxidation, dose dependence” value in assay [3] (1 hour) was “significantly and reproducibly inhibited unfractionated LDL oxidation in a dose-dependent manner”. Besides, in assay [3] (highest treatment concentration, 1 hour), the “inhibition of TBARS formation compared to vehicle-treated control” value is given as greater than 90%. Besides, in assay [1], the NO turned out to be 394 ± 43 and the “ONOO^−” value was found to be 228 ± 10.

Consider `Cc1ccc(C)c(OCCCC(C)(C)C(=O)O)c1` [gemfibrozil], for which the “effect on sdLDL oxidation as compared to vehicle-treated controls” value in assay [2] is on record as “no significant effect on sdLDL oxidation”. Moreover, in assay [3], the “effect on unfractionated LDL oxidation as compared to vehicle-treated controls” value is given as “no significant effect on unfractionated LDL oxidation”. In assay [1], the “NO/ONOO^− Ratio” value stood at 1.65±0.13, the NO amounted to 377 ± 24 and the “ONOO^−” value is on record as 228 ± 11. The “NO/ONOO^− Ratio” value in assay [1] (listed as Gemfib) came out at 1.65 ± 0.13.

For `O=C(O)c1cccnc1` [niacin, nicotinic acid], in assay [2], the “effect on sdLDL oxidation as compared to vehicle-treated controls” value was “no significant effect on sdLDL oxidation”. Also, the “effect on unfractionated LDL oxidation as compared to vehicle-treated controls” value in assay [3] is “no significant effect on unfractionated LDL oxidation”. Also, in assay [1], the “NO/ONOO^− Ratio” value is on record as 1.45±0.14, the NO is recorded as 346 ± 17 and the “ONOO^−” value is 238 ± 20. The “NO/ONOO^− Ratio” value in assay [1] (listed as Niacin) turned out to be 1.45 ± 0.14.

With `Cc1c(C)c2c(c(C)c1O)CC[C@@](C)(CCC[C@H](C)CCC[C@H](C)CCCC(C)C)O2` [vitamin E, α-tocopherol], the “effect on sdLDL oxidation as compared to vehicle-treated controls” value in assay [2] was “no significant effect on sdLDL oxidation”. Further, the “effect on unfractionated LDL oxidation as compared to vehicle-treated controls” value in assay [3] was “no significant effect on unfractionated LDL oxidation”.
